Results taken from the NIST ThermoML archive (doi:10.1021/je800197t).

Assay: xn = mol fraction of the nth substance listed
Details: 101 kPa, Liquid

CN1CCOCC1 [N-methylmorpholine] + O
Details	mass density [kg/m3]	viscosity [mPa·s]
293.15 K, x1 = 0.0452	1002.38	1.898
293.15 K, x1 = 0.0942	1005.32	2.577
293.15 K, x1 = 0.1267	1003.31	3.048
293.15 K, x1 = 0.1763	1000.27	3.562
293.15 K, x1 = 0.2022	996.93	3.777
293.15 K, x1 = 0.2538	991.88	4.115
293.15 K, x1 = 0.2843	988.53	4.238
293.15 K, x1 = 0.3275	983.61	4.395
293.15 K, x1 = 0.3754	977.87	4.439
293.15 K, x1 = 0.4033	974.29	4.429
293.15 K, x1 = 0.4286	971.29	4.406
293.15 K, x1 = 0.4689	966.09	4.331
293.15 K, x1 = 0.4983	962.76	4.241
293.15 K, x1 = 0.5433	957.25	4.065
293.15 K, x1 = 0.5983	950.09	3.798
293.15 K, x1 = 0.6438	945.88	3.544
293.15 K, x1 = 0.6942	941.06	3.187
293.15 K, x1 = 0.7587	934.53	2.792
293.15 K, x1 = 0.8163	929.89	2.323
293.15 K, x1 = 0.8869	924.9	1.791
293.15 K, x1 = 0.9244	922.59	1.503
293.15 K, x1 = 0.9812	919.88	1.166
303.15 K, x1 = 0.0452	990.98	1.594
303.15 K, x1 = 0.0942	993.65	2.036
303.15 K, x1 = 0.1267	991.58	2.451
303.15 K, x1 = 0.1763	988.46	2.922
303.15 K, x1 = 0.2022	985.14	3.065
303.15 K, x1 = 0.2538	980.12	3.386
303.15 K, x1 = 0.2843	976.81	3.497
303.15 K, x1 = 0.3275	971.96	3.619
303.15 K, x1 = 0.3754	966.31	3.669
303.15 K, x1 = 0.4033	962.77	3.636
303.15 K, x1 = 0.4286	959.83	3.635
303.15 K, x1 = 0.4689	954.72	3.562
303.15 K, x1 = 0.4983	951.45	3.521
303.15 K, x1 = 0.5433	946.05	3.363
303.15 K, x1 = 0.5983	939.74	3.128
303.15 K, x1 = 0.6438	934.89	2.878
303.15 K, x1 = 0.6942	931.06	2.588
303.15 K, x1 = 0.7587	924.36	2.262
303.15 K, x1 = 0.8163	920.39	1.857
303.15 K, x1 = 0.8869	915.52	1.489
303.15 K, x1 = 0.9244	913.29	1.359
303.15 K, x1 = 0.9812	910.58	1.091
313.15 K, x1 = 0.0452	985.04	1.327
313.15 K, x1 = 0.0942	982.32	1.715
313.15 K, x1 = 0.1267	980.45	1.968
313.15 K, x1 = 0.1763	977.58	2.348
313.15 K, x1 = 0.2022	974.42	2.482
313.15 K, x1 = 0.2538	969.64	2.703
313.15 K, x1 = 0.2843	966.47	2.838
313.15 K, x1 = 0.3275	961.8	2.908
313.15 K, x1 = 0.3754	956.33	2.901
313.15 K, x1 = 0.4033	952.91	2.869
313.15 K, x1 = 0.4286	950.06	2.869
313.15 K, x1 = 0.4689	945.1	2.798
313.15 K, x1 = 0.4983	941.92	2.758
313.15 K, x1 = 0.5433	936.67	2.602
313.15 K, x1 = 0.5983	930.57	2.388
313.15 K, x1 = 0.6438	925.8	2.244
313.15 K, x1 = 0.6942	922.05	2.031
313.15 K, x1 = 0.7587	916.24	1.764
313.15 K, x1 = 0.8163	912.31	1.495
313.15 K, x1 = 0.8869	907.94	1.222
313.15 K, x1 = 0.9244	905.91	1.077
313.15 K, x1 = 0.9812	903.31	0.952
323.15 K, x1 = 0.0452	978.13	1.119
323.15 K, x1 = 0.0942	972.37	1.334
323.15 K, x1 = 0.1267	968.24	1.539
323.15 K, x1 = 0.1763	965.46	1.761
323.15 K, x1 = 0.2022	962.36	1.858
323.15 K, x1 = 0.2538	957.73	2.023
323.15 K, x1 = 0.2843	954.64	2.113
323.15 K, x1 = 0.3275	950.07	2.183
323.15 K, x1 = 0.3754	944.75	2.176
323.15 K, x1 = 0.4033	941.43	2.143
323.15 K, x1 = 0.4286	938.65	2.144
323.15 K, x1 = 0.4689	933.8	2.073
323.15 K, x1 = 0.4983	930.71	2.033
323.15 K, x1 = 0.5433	925.57	1.948
323.15 K, x1 = 0.5983	919.96	1.783
323.15 K, x1 = 0.6438	916.85	1.677
323.15 K, x1 = 0.6942	913.49	1.536
323.15 K, x1 = 0.7587	906.16	1.362
323.15 K, x1 = 0.8163	902.37	1.158
323.15 K, x1 = 0.8869	898.07	0.954
323.15 K, x1 = 0.9244	896.15	0.939
323.15 K, x1 = 0.9812	894.06	0.841
333.15 K, x1 = 0.0452	968.24	0.708
333.15 K, x1 = 0.0942	961.01	0.998
333.15 K, x1 = 0.1267	955.3	1.111
333.15 K, x1 = 0.1763	951.37	1.251
333.15 K, x1 = 0.2022	–	1.297
333.15 K, x1 = 0.2538	942.51	1.396
333.15 K, x1 = 0.2843	939.75	1.425
333.15 K, x1 = 0.3275	935.6	1.477
333.15 K, x1 = 0.3754	930.7	1.468
333.15 K, x1 = 0.4033	927.59	1.434
333.15 K, x1 = 0.4286	925	1.433
333.15 K, x1 = 0.4689	920.44	1.361
333.15 K, x1 = 0.4983	917.56	1.319
333.15 K, x1 = 0.5433	912.67	1.232
333.15 K, x1 = 0.5983	907.35	1.126
333.15 K, x1 = 0.6438	904.17	1.033
333.15 K, x1 = 0.6942	900.9	0.935
333.15 K, x1 = 0.7587	894.82	0.837
333.15 K, x1 = 0.8163	891.64	0.809
333.15 K, x1 = 0.8869	888.89	0.719
333.15 K, x1 = 0.9244	886.87	0.703
333.15 K, x1 = 0.9812	884.98	0.709
343.15 K, x1 = 0.0452	962.12	0.499
343.15 K, x1 = 0.0942	954.33	0.564
343.15 K, x1 = 0.1267	948.38	0.653
343.15 K, x1 = 0.1763	944.12	0.691
343.15 K, x1 = 0.2022	939.98	0.704
343.15 K, x1 = 0.2538	934.96	0.729
343.15 K, x1 = 0.2843	932.11	0.757
343.15 K, x1 = 0.3275	927.87	0.771
343.15 K, x1 = 0.3754	922.89	0.793
343.15 K, x1 = 0.4033	919.76	0.757
343.15 K, x1 = 0.4286	917.15	0.755
343.15 K, x1 = 0.4689	912.58	0.773
343.15 K, x1 = 0.4983	909.69	0.718
343.15 K, x1 = 0.5433	904.8	0.701
343.15 K, x1 = 0.5983	899.49	0.661
343.15 K, x1 = 0.6438	896.3	0.629
343.15 K, x1 = 0.6942	893.02	0.598
343.15 K, x1 = 0.7587	886.99	0.569
343.15 K, x1 = 0.8163	883.81	0.566
343.15 K, x1 = 0.8869	881.05	0.556
343.15 K, x1 = 0.9244	879.04	0.551
343.15 K, x1 = 0.9812	877.14	0.535
